From ChEMBL document CHEMBL4152235, “Synthesis, anionophoric activity and apoptosis-inducing bioactivity of benzimidazolyl-based transmembrane anion transporters” (Eur J Med Chem, 2018)
The source made the active and inactive calls. The rule behind the calls is not given here.

How the values were obtained:
A549 [1] = experiment: Cytotoxicity against human A549 cells assessed as reduction in cell viability at 50 uM after 48 hrs by MTT assay relative to control; format: functional; conditions: A549, 48 h
HeLa [2] = experiment: Cytotoxicity against human HeLa cells assessed as reduction in cell viability at 50 uM after 48 hrs by MTT assay relative to control; format: functional
MCF7 [3] = experiment: Cytotoxicity against human MCF7 cells assessed as reduction in cell viability at 50 uM after 48 hrs by MTT assay relative to control; format: functional; conditions: MCF7, 48 h
HepG2 [4] = experiment: Cytotoxicity against human HepG2 cells assessed as reduction in cell viability at 50 uM after 48 hrs by MTT assay relative to control; format: functional; conditions: HepG2, 48 h
HeLa [5] = experiment: Cytotoxicity against human HeLa cells assessed as reduction in cell viability after 48 hrs by MTT assay; format: functional, cell-based
A549 [6] = experiment: Cytotoxicity against human A549 cells assessed as reduction in cell viability after 48 hrs by MTT assay; format: functional, cell-based; conditions: A549, 48 h
L02 = experiment: Cytotoxicity against human LO2 cells assessed as reduction in cell viability after 48 hrs by MTT assay; format: cell-based; conditions: L02, 48 h
MCF7 [7] = experiment: Cytotoxicity against human MCF7 cells assessed as reduction in cell viability after 48 hrs by MTT assay; format: functional, cell-based; conditions: MCF7, 48 h
HepG2 [8] = experiment: Cytotoxicity against human HepG2 cells assessed as reduction in cell viability after 48 hrs by MTT assay; format: functional, cell-based; conditions: HepG2, 48 h
[9] = Binding affinity to chloride ion at 1.5 x 10^-5M using tetra(n-butyl)ammonium chloride measured after 2 mins by spectrophotometric titration method
MCF7 [10] = experiment: Ionophoric activity across human MCF7 cells assessed as chloride ion efflux up to 10 uM after 2 hrs by MQAE dye based fluorescence assay; format: cell-based
[11] = (§1) Ionophoric activity across pyranine dye encapsulated pH 7 egg yolk L-alpha-phosphatidylcholine-based liposomal membranes assessed as chloride ion transport by measuring induction of pH discharge after 20 mins in presence of NaCl loaded external vesicles by fluorescence method
HeLa [12] = experiment: Ionophoric activity across human HeLa cells assessed as chloride ion efflux up to 10 uM after 2 hrs by MQAE dye based fluorescence assay; format: cell-based
HeLa [13] = experiment: Ionophoric activity across human HeLa cells assessed as chloride ion efflux at 10 uM after 3 hrs by acridine orange staining based fluorescence microscopic analysis; format: cell-based
[14] = Ionophoric activity across pyranine dye encapsulated pH 7 egg yolk L-alpha-phosphatidylcholine-based liposomal membranes assessed as chloride ion transport by measuring induction of pH discharge after 20 mins in presence of NaCl loaded external vesicles by fluorescence method relative to m-Bimbe
[15] = Binding affinity to chloride ion assessed as 1:1 compound-Cl- complex formation at 4.1 mM using tetra(n-butyl)ammonium chloride by ESI MS spectrometric method
[16] = Binding affinity to chloride ion at 1.5 x 10^-5M using tetra(n-butyl)ammonium chloride measured after 5 mins by spectrophotometric titration method
[17] = as §1, with “measuring initial rate constant for” for “measuring”, “discharge at 7.81 x 10^-3 mol%” for “discharge”, “method (reference value: 5.03 +/- 1.02 10^-3/min)” for “method”
[18] = as §1, with “measuring initial rate constant for” for “measuring”, “discharge at 1.56 x 10^-2 mol%” for “discharge”, “method (reference value: 5.03 +/- 1.02 10^-3/min)” for “method”
[19] = as §1, with “measuring initial rate constant for” for “measuring”, “discharge at 2.50 x 10^-1 mol%” for “discharge”, “method (reference value: 5.03 +/- 1.02 10^-3/min)” for “method”
[20] = as §1, with “measuring initial rate constant for” for “measuring”, “discharge at 6.25 x 10^-2 mol%” for “discharge”, “method (reference value: 5.03 +/- 1.02 10^-3/min)” for “method”
[21] = as §1, with “measuring initial rate constant for” for “measuring”, “discharge at 3.13 x 10^-2 mol%” for “discharge”, “method (reference value: 5.03 +/- 1.02 10^-3/min)” for “method”
[22] = as §1, with “measuring initial rate constant for” for “measuring”, “discharge at 1.25 x 10^-1 mol%” for “discharge”, “method (reference value: 5.03 +/- 1.02 10^-3/min)” for “method”

Structure (SMILES): c1ccc2[nH]c(-c3ccc(-c4nc5ccccc5[nH]4)cc3)nc2c1
- inhibition at 50 µM (A549 [1]): 53.1%
- inhibition at 50 µM (HeLa [2]): 59.6%
- inhibition at 50 µM (MCF7 [3]): 63.3%
- inhibition at 50 µM (HepG2 [4]): 17.4%

Structure (SMILES): Fc1ccc2nc(-c3cccc(-c4nc5ccc(F)cc5[nH]4)c3)[nH]c2c1
- IC50 (HeLa [5]): 11.6 µM
- inhibition at 50 µM (A549 [1]): 33.6%
- IC50 (A549 [6]): > 100 µM
- IC50 (L02): 20.8 µM
- inhibition at 50 µM (HeLa [2]): 83.5%
- inhibition at 50 µM (MCF7 [3]): 26.4%
- inhibition at 50 µM (HepG2 [4]): 78.9%
- IC50 (MCF7 [7]): > 100 µM
- IC50 (HepG2 [8]): 17.3 to 17.4 µM

Structure (SMILES): c1ccc(-c2nc3ccccc3[nH]2)cc1
- inhibition at 50 µM (A549 [1]): 1.2%
- inhibition at 50 µM (HeLa [2]): 8.1%
- inhibition at 50 µM (MCF7 [3]): 25.5%
- inhibition at 50 µM (HepG2 [4]): 11.6%

Structure (SMILES): Brc1ccc2nc(-c3cccc(-c4nc5ccc(Br)cc5[nH]4)c3)[nH]c2c1
- IC50 (HeLa [5]): 21.1 µM
- inhibition at 50 µM (A549 [1]): 92.6%
- IC50 (A549 [6]): 21.9 µM
- IC50 (L02): 17.8 µM
- inhibition at 50 µM (HeLa [2]): 98%
- inhibition at 50 µM (MCF7 [3]): 93.5%
- inhibition at 50 µM (HepG2 [4]): 93.1%
- IC50 (MCF7 [7]): 9.7 µM
- IC50 (HepG2 [8]): 12.1 µM

Structure (SMILES): FC(F)(F)c1ccc2nc(-c3cccc(-c4nc5ccc(C(F)(F)F)cc5[nH]4)c3)[nH]c2c1
- IC50 (HeLa [5]): 8 µM
- inhibition at 50 µM (A549 [1]): 99.3%
- Ka [9]: 4.52 ×10³ /M
- Activity (MCF7 [10]): Active
- IC50 (A549 [6]): 8.9 µM
- IC50 (L02): 10.9 µM
- inhibition at 50 µM (HeLa [2]): 100%
- EC50 [11]: 9.59 ×10⁻² mol%
- EC50 ([11]; read-out: EC50): 1.27 µM
- inhibition at 50 µM (MCF7 [3]): 98.8%
- inhibition at 50 µM (HepG2 [4]): 100%
- Activity (HeLa [12]): Active
- Activity (HeLa [13]): Active
- fold change (FC) [14]: 67
- IC50 (MCF7 [7]): 12.8 µM
- IC50 (HepG2 [8]): 6.6 µM

Structure (SMILES): COc1cc(-c2nc3ccc([N+](=O)[O-])cc3[nH]2)cc(-c2nc3ccc([N+](=O)[O-])cc3[nH]2)c1
- IC50 (HeLa [5]): 1 µM
- inhibition at 50 µM (A549 [1]): 67.7%
- IC50 (A549 [6]): 18.5 µM
- IC50 (L02): 26.3 µM
- inhibition at 50 µM (HeLa [2]): 85.3%
- Activity [15]: Active
- Activity [11]: Dose-dependent effect
- EC50 [11]: 0.32 mol%
- EC50 ([11]; read-out: EC50): 4.24 µM
- inhibition at 50 µM (MCF7 [3]): 96.3%
- inhibition at 50 µM (HepG2 [4]): 96.7%
- Ka [16]: 1.56 ×10³ /M
- fold change (FC) [14]: 20
- IC50 (MCF7 [7]): 17.1 µM
- IC50 (HepG2 [8]): 8.9 µM

Structure (SMILES): COc1cc(-c2nc3ccc(C(F)(F)F)cc3[nH]2)cc(-c2nc3ccc(C(F)(F)F)cc3[nH]2)c1
- IC50 (HeLa [5]): 8.4 µM
- inhibition at 50 µM (A549 [1]): 100%
- Activity (MCF7 [10]): Active
- IC50 (A549 [6]): 8.1 µM
- K [17]: 3.23 ×10⁻² /min
- K [18]: 4.33 ×10⁻² /min
- IC50 (L02): 10.1 µM
- inhibition at 50 µM (HeLa [2]): 91.8%
- Activity [15]: Active
- K [19]: 1.47 ×10⁻¹ /min
- K [20]: 8.52 ×10⁻² /min
- Activity [11]: Dose-dependent effect
- EC50 [11]: 0.15 mol%
- EC50 ([11]; read-out: EC50): 1.99 µM
- K [21]: 6.31 ×10⁻² /min
- inhibition at 50 µM (MCF7 [3]): 98.9%
- inhibition at 50 µM (HepG2 [4]): 101%
- Activity (HeLa [12]): Active
- Ka [16]: 3.53 ×10³ /M
- Activity (HeLa [13]): Active
- K [22]: 1.16 ×10⁻¹ /min
- fold change (FC) [14]: 43
- IC50 (MCF7 [7]): 11.9 µM
- IC50 (HepG2 [8]): 10.7 µM

Structure (SMILES): c1ccc(-c2nc3ccccc3[nH]2)c(-c2nc3ccccc3[nH]2)c1
- inhibition at 50 µM (A549 [1]): -6%
- inhibition at 50 µM (HeLa [2]): 24.9%
- inhibition at 50 µM (MCF7 [3]): 11.6%
- inhibition at 50 µM (HepG2 [4]): 3.6%

Structure (SMILES): c1cc(-c2nc3ccccc3[nH]2)cc(-c2nc3ccccc3[nH]2)c1
- IC50 (HeLa [5]): 8.5 µM
- inhibition at 50 µM (A549 [1]): 91.1%
- Ka [9]: 2.48 ×10³ /M
- Activity (MCF7 [10]): Active
- IC50 (A549 [6]): 38.5 µM
- IC50 (L02): 19.9 µM
- inhibition at 50 µM (HeLa [2]): 96.5%
- Activity [15]: Active
- EC50 [11]: 6.47 mol%
- EC50 ([11]; read-out: EC50): 85.8 µM
- inhibition at 50 µM (MCF7 [3]): 31.9%
- inhibition at 50 µM (HepG2 [4]): 69.5%
- Activity (HeLa [12]): Active
- Activity (HeLa [13]): Active
- IC50 (MCF7 [7]): > 100 µM
- IC50 (HepG2 [8]): 20.6 µM

Structure (SMILES): O=[N+]([O-])c1ccc2nc(-c3cccc(-c4nc5ccc([N+](=O)[O-])cc5[nH]4)c3)[nH]c2c1
- inhibition at 50 µM (A549 [1]): 52.1%
- Ka [9]: 2.22 ×10³ /M
- inhibition at 50 µM (HeLa [2]): 59.2%
- EC50 [11]: 8.19 ×10⁻³ mol%
- EC50 ([11]; read-out: EC50): 0.11 µM
- inhibition at 50 µM (MCF7 [3]): 47.4%
- inhibition at 50 µM (HepG2 [4]): 15.4%
- fold change (FC) [14]: 790

Structure (SMILES): Clc1ccc2nc(-c3cccc(-c4nc5ccc(Cl)cc5[nH]4)c3)[nH]c2c1
- IC50 (HeLa [5]): 10.7 µM
- inhibition at 50 µM (A549 [1]): 82.4%
- IC50 (A549 [6]): 23.7 µM
- IC50 (L02): 13.7 µM
- inhibition at 50 µM (HeLa [2]): 95.6%
- inhibition at 50 µM (MCF7 [3]): 90.5%
- inhibition at 50 µM (HepG2 [4]): 98.4%
- IC50 (MCF7 [7]): 25.9 µM
- IC50 (HepG2 [8]): 9.1 µM

Structure (SMILES): Cn1c(-c2cccc(-c3nc4ccccc4n3C)c2)nc2ccccc21
- inhibition at 50 µM (A549 [1]): 22.2%
- inhibition at 50 µM (HeLa [2]): 43.2%
- inhibition at 50 µM (MCF7 [3]): 23.3%
- inhibition at 50 µM (HepG2 [4]): 49.1%

Structure (SMILES): COc1cccc2c1C(=O)c1c(O)c3c(c(O)c1C2=O)C[C@@](O)(C(=O)CO)C[C@@H]3O[C@H]1C[C@H](N)[C@H](O)[C@H](C)O1 [DOXORUBICIN]
- IC50 (HeLa [5]): 0.5 µM
- IC50 (A549 [6]): 0.6 µM
- IC50 (L02): 0.11 µM
- IC50 (MCF7 [7]): 0.8 µM
- IC50 (HepG2 [8]): 2.1 µM
